Experimental data taken from PubChem BioAssay AID330 (DTP/NCI, 2004).
Values joined by “and” are separate entries in the source; they are usually repeats but may differ in a detail not shown here. Equal entries are not always repeated. Toxic doses and inconclusive results are not listed.

Tested on: P388 leukemia ip, CD2F1 mice, survival T/C
Assay: NCI In Vivo Anticancer Drug Screen. Data for tumor model P388 Leukemia (intraperitoneal) in CD2F1 (CDF1) mice
Settings: endpoint: median survival time, higher = longer survival
Outline: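 Mice carrying the transplanted tumor received test compound or vehicle. Survival was recorded in each group, and the value is the treated-group measurement divided by that of the vehicle-treated control group.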

Q: `O=C(Nc1ccc(C2=NCC(O)CN2)cc1)c1ccc(C(=O)Nc2ccc(C3=NCC(O)CN3)cc2)cc1` (stereo not drawn) was tested. Which T/C (dose: 1.56 mg/kg/injection, schedule: Q01DX005 (ip), vehicle: saline with Tween-80) did it give?
A: The T/C was 122 % of control.

Q: What about the T/C (dose: 6.25 mg/kg/injection, schedule: Q01DX005 (ip), vehicle: saline with Tween-80) of the same compound?
A: The T/C was 155 % of control.

Q: Which results are given for `CCCCN1C(=O)C2C3CCC(O3)C2C1=O` (stereo not drawn)?
A: T/C (dose: 60.0 mg/kg/injection, schedule: Q01DX005 (ip), vehicle: saline with Tween-80): 100 % of control; T/C (dose: 120.0 mg/kg/injection, schedule: Q01DX005 (ip), vehicle: saline with Tween-80): 92 % of control

Q: Which results are given for `CC1(C)COC(=O)/C1=C1\SC(=S)NC1=O`?
A: T/C (dose: 100.0 mg/kg/injection, schedule: Q04DX003 (ip), vehicle: saline): 103 % of control; T/C (dose: 200.0 mg/kg/injection, schedule: Q04DX003 (ip), vehicle: saline): 92 % of control

Q: What does the source list for `[Cl-].[Cl-].[Co+3].[NH-]CC[NH-].[NH-]CC[NH-].[O-][Cl+3]([O-])([O-])O`?
A: T/C (dose: 25.0 mg/kg/injection, schedule: Q01DX009 (ip), vehicle: saline with Tween-80): 102 % of control; T/C (dose: 50.0 mg/kg/injection, schedule: Q01DX009 (ip), vehicle: saline with Tween-80): 105 % of control and 117 % of control; T/C (dose: 100.0 mg/kg/injection, schedule: Q01DX009 (ip), vehicle: saline with Tween-80): 111 % of control and 123 % of control

Q: `OC1CC2CCCCC2CC1C1CCCCC1` (stereo not drawn) was tested. Which T/C (dose: 100.0 mg/kg/injection, schedule: Q01DX001 (ip), vehicle: Klucel (hydroxypropylcellulose) (HPC)) did it give?
A: The T/C was 90 % of control.

Q: And the T/C (dose: 200.0 mg/kg/injection, schedule: Q01DX001 (ip), vehicle: Klucel (hydroxypropylcellulose) (HPC))?
A: The T/C was 91 % of control.

Q: And the T/C (dose: 400.0 mg/kg/injection, schedule: Q01DX001 (ip), vehicle: Klucel (hydroxypropylcellulose) (HPC))?
A: Its T/C is 94 % of control.

Q: Which results are given for `Cc1cn(C2CC(O)C(CI)O2)c(=O)[nH]c1=O` (stereo not drawn)?
A: T/C (dose: 50.0 mg/kg/injection, schedule: Q01DX005 (ip), vehicle: saline with Tween-80): 98 % of control; T/C (dose: 100.0 mg/kg/injection, schedule: Q01DX005 (ip), vehicle: saline with Tween-80): 104 % of control; T/C (dose: 200.0 mg/kg/injection, schedule: Q01DX005 (ip), vehicle: saline with Tween-80): 98 % of control

Q: For `CCn1c(=O)c2[nH]c(Cl)nc2n(CCCOC)c1=O`, which T/C (dose: 100.0 mg/kg/injection, schedule: Q04DX002 (ip), vehicle: Klucel (hydroxypropylcellulose) (HPC)) is on record?
A: Its T/C is 101 % of control.

Q: And the T/C (dose: 200.0 mg/kg/injection, schedule: Q04DX002 (ip), vehicle: Klucel (hydroxypropylcellulose) (HPC))?
A: The T/C was 95 % of control.

Q: What about the T/C (dose: 400.0 mg/kg/injection, schedule: Q04DX002 (ip), vehicle: Klucel (hydroxypropylcellulose) (HPC)) of the same compound?
A: Its T/C is 87 % of control.

Q: For `C1CCCC2(CCC1)OCCO2`, which T/C (dose: 100.0 mg/kg/injection, schedule: Q04DX003 (ip), vehicle: Klucel (hydroxypropylcellulose) (HPC)) is on record?
A: The T/C was 106 % of control.

Q: What about the T/C (dose: 200.0 mg/kg/injection, schedule: Q04DX003 (ip), vehicle: Klucel (hydroxypropylcellulose) (HPC)) of the same compound?
A: Its T/C is 102 % of control.

Q: What about the T/C (dose: 400.0 mg/kg/injection, schedule: Q04DX003 (ip), vehicle: Klucel (hydroxypropylcellulose) (HPC)) of the same compound?
A: The T/C was 95 % of control.

Q: `CC1(C)COCN(C2CCCCC2)C1` was tested. Which T/C (dose: 15.0 mg/kg/injection, schedule: Q01DX009 (ip), vehicle: saline with Tween-80) did it give?
A: Its T/C is 119 % of control.

Q: What about the T/C (dose: 30.0 mg/kg/injection, schedule: Q01DX009 (ip), vehicle: saline with Tween-80) of the same compound?
A: The T/C was 100 % of control.

Q: What about the T/C (dose: 60.0 mg/kg/injection, schedule: Q01DX009 (ip), vehicle: saline with Tween-80) of the same compound?
A: Its T/C is 108 % of control.

Q: What does the source list for `CCOC(=O)NNCC(=O)O`?
A: T/C (dose: 12.5 mg/kg/injection, schedule: Q01DX009 (ip), vehicle: water): 104 % of control; T/C (dose: 25.0 mg/kg/injection, schedule: Q01DX009 (ip), vehicle: water): 105 % of control; T/C (dose: 50.0 mg/kg/injection, schedule: Q01DX009 (ip), vehicle: water): 101 % of control; T/C (dose: 100.0 mg/kg/injection, schedule: Q01DX009 (ip), vehicle: water): 94 % of control; T/C (dose: 200.0 mg/kg/injection, schedule: Q01DX009 (ip), vehicle: water): 98 % of control

Q: How did the T/C (dose: 50.0 mg/kg/injection, schedule: Q01DX005 (ip), vehicle: Klucel (hydroxypropylcellulose) (HPC)) turn out when `CC1(C)CN2CCO[Si](CC[Si](C)(C)C)(OCC2)O1` was run?
A: Its T/C is 105 % of control.

Q: And the T/C (dose: 100.0 mg/kg/injection, schedule: Q01DX005 (ip), vehicle: Klucel (hydroxypropylcellulose) (HPC))?
A: The T/C was 105 % of control.

Q: What about the T/C (dose: 200.0 mg/kg/injection, schedule: Q01DX005 (ip), vehicle: Klucel (hydroxypropylcellulose) (HPC)) of the same compound?
A: The T/C was 102 % of control.

Q: With `CC[n+]1c(/C=C/c2ccc(N(CCC(=O)O)CCC(=O)O)cc2)sc2ccccc21` as the compound, how does the T/C (dose: 12.5 mg/kg/injection, schedule: Q04DX003 (ip), vehicle: saline with Tween-80) read?
A: Its T/C is 99 % of control.

Q: And the T/C (dose: 25.0 mg/kg/injection, schedule: Q04DX003 (ip), vehicle: saline with Tween-80)?
A: Its T/C is 100 % of control.

Q: And the T/C (dose: 50.0 mg/kg/injection, schedule: Q04DX003 (ip), vehicle: saline with Tween-80)?
A: Its T/C is 101 % of control.

Q: `CCOC(=O)C1=C(C(=O)c2ccccc2)C(c2ccc([N+](=O)[O-])cc2)C(C(=O)c2ccccc2)=C(C(=O)OCC)N1` was tested. Which T/C (dose: 7.5 mg/kg/injection, schedule: Q01DX005 (ip), vehicle: Klucel (hydroxypropylcellulose) (HPC)) did it give?
A: The T/C was 94 % of control.

Q: And the T/C (dose: 15.0 mg/kg/injection, schedule: Q01DX005 (ip), vehicle: Klucel (hydroxypropylcellulose) (HPC))?
A: Its T/C is 95 % of control.

Q: What about the T/C (dose: 30.0 mg/kg/injection, schedule: Q01DX005 (ip), vehicle: Klucel (hydroxypropylcellulose) (HPC)) of the same compound?
A: Its T/C is 100 % of control.
